In patent US8663669B2, “Pesticide treatment of soils or substrates with sulphur compounds” (Arkema France, priority 2002, dated 2014):

Test: Diffusion of DMDS into the soil (column of earth, gas chromatography)
Assay type: physicochemical
Method: The rate of diffusion of DMDS was studied by filling a sealed thermal glass chamber of 3.3 litres and 40 cm in height with 2.5 litres of earth (that is 33 cm) obtained from the Garonne valley (sandy-muddy soil containing 1.6% of organic matter); the DMDS was deposited at the surface of the earth in 2 doses: 300 and 800 kg/ha, that is, considering a disinfection over 30 cm, doses of 100 and 266.6 g/m^3 of soil. There are then measured by gas chromatography, as a function of time (in hours), the concentrations of DMDS in gaseous form (in g/m^3) in the top free volume of the chamber (point A) and at 11 cm (point B), 22 cm (point C) and 33 cm (point D) below the level of the earth by means of 3 openings equipped with sealed septums on the side of the chamber; the variation in the concentration as a function of time for the 4 measurement points is thus obtained, as shown in Table 2 in the case of the 800 kg/ha dose.
The product CT of the concentrations C by the time of measurement T is another essential data which indicates the cumulative doses of DMDS to which are subjected the pathogenic organisms which may be present at the different measurement points. The CT values in gh/m^3 indicated in Table 3 are thus found for the two concentrations tested.

## CSSC [DMDS, dimethyl disulphide]
300 kg/ha, A (0 cm)
  CT (product of concentrations C by time T): 3187 gh/m^3
300 kg/ha, B (−11 cm)
  CT (product of concentrations C by time T): 2737 gh/m^3
300 kg/ha, C (−22 cm)
  CT (product of concentrations C by time T): 2753 gh/m^3
300 kg/ha, D (−33 cm)
  CT (product of concentrations C by time T): 2210 gh/m^3
800 kg/ha dose, 0 h, A (0 cm)
  DMDS concentration in gaseous form: 0 g/m^3
800 kg/ha dose, 0 h, B (−11 cm)
  DMDS concentration in gaseous form: 0 g/m^3
800 kg/ha dose, 0 h, C (−22 cm)
  DMDS concentration in gaseous form: 0 g/m^3
800 kg/ha dose, 0 h, D (−33 cm)
  DMDS concentration in gaseous form: 0 g/m^3
800 kg/ha dose, 33 cm of earth
  Time for the DMDS concentration to be homogeneous in the entire thickness of the column of earth: approximately 24 hours
800 kg/ha dose, 1 h, A (0 cm)
  DMDS concentration in gaseous form: 144.9 g/m^3
800 kg/ha dose, 1 h, B (−11 cm)
  DMDS concentration in gaseous form: 76.6 g/m^3
800 kg/ha dose, 1 h, C (−22 cm)
  DMDS concentration in gaseous form: 3 g/m^3
800 kg/ha dose, 1 h, D (−33 cm)
  DMDS concentration in gaseous form: 0 g/m^3
800 kg/ha dose, 3 h, A (0 cm)
  DMDS concentration in gaseous form: 152.7 g/m^3
800 kg/ha dose, 3 h, B (−11 cm)
  DMDS concentration in gaseous form: 73.9 g/m^3
800 kg/ha dose, 3 h, C (−22 cm)
  DMDS concentration in gaseous form: 5.1 g/m^3
800 kg/ha dose, 3 h, D (−33 cm)
  DMDS concentration in gaseous form: 0.3 g/m^3
800 kg/ha dose, 5 h, A (0 cm)
  DMDS concentration in gaseous form: 96.3 g/m^3
800 kg/ha dose, 5 h, B (−11 cm)
  DMDS concentration in gaseous form: 63.8 g/m^3
800 kg/ha dose, 5 h, C (−22 cm)
  DMDS concentration in gaseous form: 48.4 g/m^3
800 kg/ha dose, 5 h, D (−33 cm)
  DMDS concentration in gaseous form: 21.5 g/m^3
800 kg/ha dose, 5.5 h, A (0 cm)
  DMDS concentration in gaseous form: 123.7 g/m^3
800 kg/ha dose, 5.5 h, B (−11 cm)
  DMDS concentration in gaseous form: 91.4 g/m^3
800 kg/ha dose, 5.5 h, C (−22 cm)
  DMDS concentration in gaseous form: 58.3 g/m^3
800 kg/ha dose, 5.5 h, D (−33 cm)
  DMDS concentration in gaseous form: 29.4 g/m^3
800 kg/ha dose, 24 h, A (0 cm)
  DMDS concentration in gaseous form: 32.7 g/m^3
800 kg/ha dose, 24 h, B (−11 cm)
  DMDS concentration in gaseous form: 30.2 g/m^3
800 kg/ha dose, 24 h, C (−22 cm)
  DMDS concentration in gaseous form: 40.1 g/m^3
800 kg/ha dose, 24 h, D (−33 cm)
  DMDS concentration in gaseous form: 34.4 g/m^3
800 kg/ha dose, 96 h, A (0 cm)
  DMDS concentration in gaseous form: 11.8 g/m^3
800 kg/ha dose, 96 h, B (−11 cm)
  DMDS concentration in gaseous form: 11.5 g/m^3
800 kg/ha dose, 96 h, C (−22 cm)
  DMDS concentration in gaseous form: 12.9 g/m^3
800 kg/ha dose, 96 h, D (−33 cm)
  DMDS concentration in gaseous form: 14.6 g/m^3
800 kg/ha, A (0 cm)
  CT (product of concentrations C by time T): 4145 gh/m^3
800 kg/ha, B (−11 cm)
  CT (product of concentrations C by time T): 3327 gh/m^3
800 kg/ha, C (−22 cm)
  CT (product of concentrations C by time T): 3276 gh/m^3
800 kg/ha, D (−33 cm)
  CT (product of concentrations C by time T): 2809 gh/m^3
Dose of 300 kg/ha
  CT values, order of magnitude: ~2 500 gh/m^3
Dose of 800 kg/ha
  CT values, order of magnitude: ~3 000 gh/m^3
